Reference: PMC8729037 (European journal of pharmacology, 2019)

Legend:
[1] = tested on: EGFR; experiment: Western blot, EGFR tyrosine phosphorylation; format: cell-based, human; conditions: 100 nM NTS; for Inhibition of NTS-induced EGFR tyrosine phosphorylation (in words): 5 μM DPI or 5 mM Tiron, NCI-H838, Fig. 5; for Effect on NTS-induced EGFR tyrosine phosphorylation (in words): Fig. 6
[2] = tested on: HER2; experiment: Western blot, HER2 tyrosine phosphorylation; format: cell-based, human; conditions: 100 nM NTS; for Inhibition of NTS-induced HER2 tyrosine phosphorylation (in words): 5 μM DPI or 5 mM Tiron, NCI-H838, Fig. 5
[3] = tested on: Nox and Duox enzymes; conditions: ref Moody et al., 2018; Doroshow et al., 2012; cited from earlier work
[4] = tested on: ERK; experiment: Western blot, ERK tyrosine phosphorylation; format: cell-based, human; conditions: 100 nM NTS; for Inhibition of NTS-induced ERK tyrosine phosphorylation (in words): 5 μM DPI or 5 mM Tiron, NCI-H838, Fig. 5
[5] = tested on: c-Src, β-catenin, PYK-2 and the EGFR; conditions: A549 cells; ref Moody et al., 2014; cited from earlier work
[6] = target: neurotensin receptor 1 (Homo sapiens, UniProt P30989); experiment: Receptor binding, inhibition of specific
[7] = tested on: neurotensin receptor 1; conditions: colorectal cancer; ref Wang et al., 2010; cited from earlier work
[8] = tested on: EGFR; conditions: NSCLC cell lines; ref Moody et al., 2014; cited from earlier work
[9] = tested on: PC-3M prostate cancer cells; conditions: ref Valerie et al., 2011; cited from earlier work
[10] = tested on: tubulin; experiment: Western blot, total tubulin; format: cell-based, human; conditions: lapatinib; control; Fig. 6
[11] = tested on: NCI-H838 cells; experiment: MTT proliferation assay, NCI-H838 cells; conditions: lapatinib combined with SR48692, Fig. 7

Sequence of neurotensin receptor 1 (Homo sapiens, UniProt P30989) (P30989 whole entry): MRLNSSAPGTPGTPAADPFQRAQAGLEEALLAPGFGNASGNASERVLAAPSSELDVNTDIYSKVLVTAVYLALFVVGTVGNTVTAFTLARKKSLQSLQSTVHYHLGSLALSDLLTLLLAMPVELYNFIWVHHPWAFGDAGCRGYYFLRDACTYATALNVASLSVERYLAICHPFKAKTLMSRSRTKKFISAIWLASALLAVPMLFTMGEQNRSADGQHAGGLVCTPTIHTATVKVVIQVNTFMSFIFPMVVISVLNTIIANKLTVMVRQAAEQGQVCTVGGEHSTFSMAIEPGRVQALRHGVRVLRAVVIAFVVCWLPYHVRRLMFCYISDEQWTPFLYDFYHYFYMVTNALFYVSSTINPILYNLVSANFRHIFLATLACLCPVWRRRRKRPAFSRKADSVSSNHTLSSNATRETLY

SMILES: c1ccc2c(c1)[I+]c1ccccc1-2 [DPI, diphenylene iodonium]
- Inhibition of NTS-induced EGFR tyrosine phosphorylation (in words) [1]: significantly inhibited
- Inhibition of NTS-induced HER2 tyrosine phosphorylation (in words) [2]: significantly inhibited
- Inhibition of Nox and Duox enzymes (in words) [3]: inhibits all Nox and Duox enzymes
- Inhibition of NTS-induced ERK tyrosine phosphorylation (in words) [4]: significantly inhibited

SMILES: CNC(=O)[C@H](Cc1c[nH]c2ccccc12)NC(=O)[C@@H](CC(=O)NO)CC(C)C [GM6001]
- Effect on neurotensin-induced EGFR tyrosine phosphorylation (in words) [5]: blocked

SMILES: C[C@@H]1CN([C@H]2CC[C@](C#N)(c3ccc(F)cc3)CC2)CC[C@]1(C(=O)O)c1ccccc1 [Levocabastine]
- IC50 [6]: > 2 µM

SMILES: COc1cc2ncnc(Nc3ccc(F)c(Cl)c3)c2cc1OCCCN1CCOCC1 [Gefitinib]
- IC50 [6]: > 2 µM

SMILES: CCCC(=O)[O-].[Na+] [Sodium butyrate]
- Neurotensin receptor 1 densities (in words) [7]: reduced

SMILES: O=S(=O)(O)c1cc(O)c(O)c(S(=O)(=O)O)c1 [Tiron]
- Inhibition of NTS-induced EGFR tyrosine phosphorylation (in words) [1]: significantly inhibited
- Inhibition of NTS-induced HER2 tyrosine phosphorylation (in words) [2]: significantly inhibited
- Inhibition of NTS-induced ERK tyrosine phosphorylation (in words) [4]: significantly inhibited
- Effect on neurotensin-induced EGFR tyrosine phosphorylation (in words) [8]: reduced

SMILES: CC(C)(C)n1nc(-c2ccc(Cl)cc2)c2c(N)ncnc21 [PP2]
- Effect on neurotensin-induced EGFR tyrosine phosphorylation (in words) [5]: blocked

SMILES: COc1cccc(OC)c1-c1cc(C(=O)NC2(C(=O)O)C3CC4CC(C3)CC2C4)nn1-c1ccnc2cc(Cl)ccc12 (stereo not drawn) [SR48692]
- IC50 [6]: 0.16 ± 0.025 µM
- Sensitivity to ionizing radiation (in words) [9]: enhanced sensitivity to ionizing radiation
- Effect on neurotensin-induced EGFR tyrosine phosphorylation (in words) [8]: reduced

SMILES: CS(=O)(=O)CCNCc1ccc(-c2ccc3ncnc(Nc4ccc(OCc5cccc(F)c5)c(Cl)c4)c3c2)o1 [Lapatinib]
- Effect on total tubulin (in words) [10]: no effect
- Effect on NTS-induced EGFR tyrosine phosphorylation (in words) ([1]; 0.1 μM lapatinib): impaired
- Effect on NTS-induced EGFR tyrosine phosphorylation (in words) ([1]; 1 or 10 μM lapatinib): significantly reduced
- Effect on NTS-induced HER2 tyrosine phosphorylation (in words) ([2]; 1 or 10 μM lapatinib, Fig. 6): significantly reduced
- IC50 [6]: > 2 µM
- Effect on NTS-induced ERK tyrosine phosphorylation (in words) ([4]; 1 or 10 μM lapatinib, Fig. 6): significantly reduced
- Shift of SR48692 dose-response curve (in words) [11]: shifted the SR48692 dose-response curve to the left

SMILES: COc1ccc2c(c1)CC[C@@H]1[C@@H]2CC[C@]2(C)[C@@H](NCCCCCCN3C(=O)C=CC3=O)CC[C@@H]12 [U73122]
- Effect on neurotensin-induced EGFR tyrosine phosphorylation (in words) [5]: blocked
